Assays:
PD-L1 = PD-L1 expression in tumor cell lines (Western blot); type: cell-based, human; settings: MDA-MB-231, HBL-1, A549, MDA-MB-361, AMO-1; 0.01-10 μM, 48 hours, vs DMSO
[1] = test system: IL-10 production in primary T cells; experiment: IL-10 production by activated primary T cells; type: cell-based, human
[2] = test system: HLA class II protein HLA-DQA1; experiment: HLA-DQA1 protein level in TMD8 cells (Western blot); type: cell-based, human
Experimental: (§1) The ability of MNK-specific inhibitor compounds to regulate the level of HLA class II proteins was evaluated in a diffuse large B-cell lymphoma (DLBCL) cell line, TMD8. Briefly, human DLBCL cell line TMD8 (ATCC), was cultured in RPMI media supplemented with penicillin G (100 U/ml), streptomycin (100 μg/ml), and 10% FBS in a humidified atmosphere of 5% CO2 maintained at 37° C. About 2-4×10^6 TMD8 cells were seeded in 10 cm plates 24 hours prior to drug treatment. The following day, cells were treated with either vehicle control (DMSO) or Compound 107 at the indicated concentration (FIG. 7). Cells were harvested 48 hours post-treatment.
(§2) Treated cells were harvested, washed with PBS and lysed in 1×RIPA buffer (Thermo Fisher) for 15 minutes at 4° C. Lysates were clarified by centrifugation for 15 min at 14,000×rpm and supernatants were collected. Protein concentration in the soluble fraction was determined using the BCA protein assay (Thermo Scientific). Proteins were resolved on 4-20% Bis-Tris gradient polyacrylamide gel (Invitrogen) and transferred to nitrocellulose membrane. […] The blots were washed, scanned, and specific proteins detected using the LI-COR Odyssey infrared imager. […]

phospho-eIF4E = experiment: eIF4E phosphorylation in TMD8 cells (Western blot); type: cell-based, human
Experimental: as §1, §2

[3] = test system: CT26 (mouse colon carcinoma) tumor; experiment: CT26 colon carcinoma allograft tumor model in BALB/c mice; type: in vivo
Experimental: To evaluate the efficacy of a MNK-specific inhibitor in cancer, an in vivo allograft tumor model was used. Briefly, CT26 (mouse colon carcinoma) cells grown in DMEM supplemented with 10% FBS were harvested during exponential growth and counted for tumor inoculation in immune competent BALB/c mice. Each mouse was inoculated with 0.3×10^6 CT26 tumor cells in the right flank region in a 0.2 ml volume comprising a 1:1 ratio (volume to volume) of cells in growth media (0.1 ml) and Matrigel® matrix (0.1 ml) (BD Biosciences, San Jose Calif.). Tumors were allowed to grow to 100-200 mm^3 prior to study initiation. Before beginning treatment, all animals were weighed and tumor volumes measured using a caliper. Since the tumor volume can affect the effectiveness of any given treatment, mice were randomly assigned into vehicle and test article treatment groups after tumors had reached a similar size. Each study group contained 8 mice, with each group receiving one of the following treatments: (1) Compound 107 in 10% 1-methyl-2-pyrrolidinone and 90% propylene glycol and given at a dose of 1 mg/kg orally, once a day; (2) anti-PD1 (BioXcell, Lebanon, N.H.) in PBS and given at a dose of 0.5 mg/mouse intraperitoneally, once every four days (as described by Wei et al., PLoS One 8:e84927, 2013); (3) a combination of Compound 107 at 1 mg/kg orally, once a day and anti-PD1 at 0.5 mg/mouse intraperitoneally, once every four days; (4) vehicle only control.
During the study, tumor size (for subcutaneous implants) was measured in length and width with a caliper twice a week. The tumor volume was calculated by the formula L×W×W/2 according to NCI standards. Tumor growth inhibition (TGI %) is an indication of anti-tumor effectiveness, which is expressed as follows: TGI (%)=100×(1−(ΔT/ΔC)). ΔT and ΔC were the change in mean tumor volume of the treated and control groups, relative to mean tumor volume at the start of treatment. All experiments continued until group mean tumor volume reached about 2000 to 2,500 mm^3 in size. […] Also, the body weight for each mouse was collected at least once prior to the study start, and twice a week during the study. Body weight change is an indication of tolerability, so percent body weight change is calculated as follows: body weight change (%)=100×(body weightend−body weightstart)/body weightstart. Mice were also observed daily for mortality, mobility, hunched posture, piloerection, or other signs of distress while dosing. If a mouse lost greater than 20% body weight due to toxicity, or the combination of toxicity and tumor burden, it was euthanized. If there was apparent toxicity, the mice were taken off treatment and clinical observation and body weight measurement were done daily.

CT26 tumor = CT26 tumor re-challenge of previously treated mice; type: in vivo, mouse
Experimental: Previously treated allograft mice that responded to therapy or were tumor-free from each treatment group (8 days post-treatment) were tested for development of long-term immune memory by re-implanting new CT26 tumors and assessing for tumor growth compared to naïve BALB/c mice. Briefly, treated mice were re-implanted and naïve were implanted for the first time with tumor cells in the left flank region in 0.1 ml of growth media and an equal 0.1 ml volume ratio of Matrigel® matrix (1:1 volume to volume ratio), as before. Tumors in these untreated mice were measured following implantation as described herein.

[4] = 15 days after initiation of dosing
[5] = 22 days after initiation of dosing

Cc1cc(Nc2cc(N)ncn2)c(=O)n2c1C(=O)NC21CCCCC1.Cl [Compound 107]
expression of PD-L1 (PD-L1): reduced in a dose dependent manner | % IL-10 Inhibition [1]: ++++ (++++ = 75-100%) | expression/production of IL-10 [1]: inhibited | inhibition at 10 µM ([1]; Homo sapiens, T-cell, 10 μM, read-out: maximum inhibition of the production of IL-10): 96% | EC50 ([2]; Homo sapiens, TMD8, 48 h, read-out: EC50 of increase in HLA-DQA1 protein level): ~300 nM | HLA-DQA1 protein level ([2]; TMD8 cells, 48 hours, 300 nM or 10 μM): dose dependent increase | phosphorylation of eIF4E (phospho-eIF4E): potently inhibited | Mean Tumor Volume (mm^3) ± SEM [3, 4]: 522.3 ± 174.4; mm^3 | Tumor Growth Inhibition (% TGI) [3, 4]: about 34% | Tumor Growth Inhibition (% TGI) ([3]; 15 days after initiation of dosing, listed as Cmpd 107): 34% | Mean Tumor Volume (mm^3) ± SEM [3, 5]: 1260.8 ± 499.1 mm^3 | Tumor Growth Inhibition (% TGI) [3, 5]: about 55% | Tumor Growth Inhibition (% TGI) ([3]; 22 days after initiation of dosing, listed as Cmpd 107): 54% | Body Weight Change Average % ([3]; final day of study (day 22)): 13.9% | Mean Tumor Volume (mm^3) ± SEM (CT26 tumor; 8 days after tumor implant): 22.4 ± 4.5 mm^3 | Tumor Formation (CT26 tumor; animals with measurable tumor / group, no further drug treatment): 0/4
